SMILES strings stand for the structures. Some results are limits rather than exact numbers.

The IC50 is the point on the concentration scale where inhibition reaches its midpoint. A lower IC50 goes with greater potency.

Experiment [1] concerns the target T1, hemoglobin (20% hct blood) (Homo sapiens, UniProt P68871+P69905).
T1 construct: Normal whole blood was collected from adult healthy donors; from tissue; host or cells: normal human whole blood (red blood cells), adult healthy donors
Briefly: Dose-dependent whole blood OEC studies. In kind it is cell-based. To be noted: 37° C., 1 hr. The essentials: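 Human whole blood at 20% hct shaken with 0.2, 0.5 or 1 mM compound at 37° C. for 1 hr; DMSO (1%) vehicle control. Oxygen equilibrium curves gave pO2 and Hb oxygen saturation (sO2), reported as delta p50%.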

The test system of experiment [2] is sickled HbSS whole blood (RBC sickling). The experiment can be described thus: Anti-sickling assay in HbSS sickled blood under hypoxic induction. Format: cell-based, human. To be noted: HbSS whole blood 26% Hct, 20 mins hypoxic induction; 0.2 mM compounds (FIG. 2). The procedure:
Materials: • Blood collected after informed consent from sickle cell individuals. • HBS buffer: 10 mM HEPES, 145 mM NaCl, pH 7.4 • Hemox buffer: Buffer provided for the hemox analyzer • Control Compound stock solution in DMSO (50 mM) stored at RT • Control Compound work solution (CWS): 10 μl of DMSO was added by Hamilton to 90 μl of HBS buffer (20 mM Hepes, 145 mM NaCl, pH 7.4) to create a working solution with a final concentration of 5 mM drug and 10% DMSO). • Compound stock solution in DMSO (50 mM) stored at RT • Compound work solution (WS): 10 μl of DMSO was added by Hamilton to 90 μl of HBS buffer (20 mM Hepes, 145 mM NaCl, pH 7.4) to create a working solution with a final concentration of 5 mM drug and 10% DMSO). • DMSO buffer: 10% DMSO (DB), same as WS but without drug. This will be used to maintain DMSO the same for different drug incubations. Test Protocol:
Collect blood from Clinic: Blood were collected after informed consent according to an approved IRB protocol. • Run Advia 120 analysis on SCD blood, to determine Hct. • Dilute blood to 20% Hct with HBS to total volume of 3 ml. • This cell suspension (CS) will be used for all experiments.
Incubation • 1. 200 μl CS • 2. 200 μl CS+20 μl CWS (5 mM diluted 10 times=0.5 mM control final)−(1% DMSO) • 3. 200 μl CS+20 μl WS (5 mM diluted 10 times=0.5 mM control final)−(1% DMSO) • 4. 200 μl CS+8 μl WS (0.2 mM drug final)+DB−(1% DMSO) • Incubate 30 minutes at 37° C.
50 μl into 1 ml HBS+2% BSA buffer. Eight time points (0-20 minutes) at 2% oxygen, 10,000 events each)
The sickling runs provide sets samples that need to be run on the AMNIS image flow and are subsequently analyzed with pixel analysis software.
Drug was provided at 50 mM concentration in DMSO, and stored at room temperature until use. 10 μl of DMSO was added by Hamilton to 90 μl of HBS buffer (20 mM Hepes, 145 mM NaCl, pH 7.4) to create a working solution with a final concentration of 5 mM drug and 10% DMSO). Blood was collected from a sickle cell patient in EDTA anticoagulant. To 200 μl of whole blood, a 20 or 8 μl of working solution was added resulting in a final drug concentration of 0.5 mM or 0.2 mM respectively. The DMSO concentration in both was corrected to 1%. The final hematocrit was measured by ADVIA analysis to be 26%. […] The delta hemox (%) comparing Example 29e with GBT440 is shown in FIG. 1A (0.2 mM) and FIG. 1B (0.5 mM).
Anti-sickling is shown in FIG. 2 with M: maximum percentage of sickled cells during 20 mins of hypoxic induction, T: time needed to reach 50% of M, and Z: baseline percentage of sickled cells prior to hypoxic induction.

The next experiment addresses T2, CYP2C19 (Homo sapiens, UniProt P33261).
T2 construct: from tissue; host or cells: human liver microsomes
Briefly: CYP inhibition evaluation in human liver microsomes. In kind it is in vitro ADME. From the text: (§1) Example A5: CYP Inhibition Evaluation in Human Liver Microsomes

For the next experiment, the target named is T3, CYP2C8 (Homo sapiens, UniProt P10632).
T3 construct: from tissue; host or cells: human liver microsomes
T3 sequence (P10632 1-490): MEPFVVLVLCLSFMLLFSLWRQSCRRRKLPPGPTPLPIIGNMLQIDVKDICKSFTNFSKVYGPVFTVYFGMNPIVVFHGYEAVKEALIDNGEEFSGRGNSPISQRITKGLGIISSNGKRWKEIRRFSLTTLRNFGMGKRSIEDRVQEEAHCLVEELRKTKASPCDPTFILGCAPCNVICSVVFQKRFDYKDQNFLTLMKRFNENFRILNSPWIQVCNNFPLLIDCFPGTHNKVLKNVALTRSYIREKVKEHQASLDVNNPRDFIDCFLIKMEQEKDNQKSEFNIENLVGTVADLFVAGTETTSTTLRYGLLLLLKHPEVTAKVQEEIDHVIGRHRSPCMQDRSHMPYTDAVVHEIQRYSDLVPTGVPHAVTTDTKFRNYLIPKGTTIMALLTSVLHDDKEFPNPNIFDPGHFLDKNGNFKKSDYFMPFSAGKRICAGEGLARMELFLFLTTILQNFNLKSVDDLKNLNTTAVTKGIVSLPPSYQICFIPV
Described as above. Format: in vitro ADME.
Description: as §1

In another experiment the target is T4, CYP2C9 (Homo sapiens, UniProt P11712).
T4 construct: from tissue; host or cells: human liver microsomes
Described as above. In kind it is in vitro ADME.
Description: as §1

Another experiment concerns the target T5, CYP2D6 (Homo sapiens, UniProt P10635).
T5 construct: from tissue; host or cells: human liver microsomes
Described as above. In kind it is in vitro ADME.
Description: as §1

For the next experiment, the target named is T6, CYP3A4-M (Homo sapiens, UniProt P08684).
T6 construct: from tissue; host or cells: human liver microsomes
The experiment is described as above. Format: in vitro ADME.
Description: as §1

T1 sequence (P69905 2-142 limits assumed): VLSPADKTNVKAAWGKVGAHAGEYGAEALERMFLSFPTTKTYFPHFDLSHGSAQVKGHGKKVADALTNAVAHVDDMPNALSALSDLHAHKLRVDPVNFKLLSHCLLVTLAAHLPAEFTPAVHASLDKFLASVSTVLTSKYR
T1 sequence (P68871 2-147 limits assumed): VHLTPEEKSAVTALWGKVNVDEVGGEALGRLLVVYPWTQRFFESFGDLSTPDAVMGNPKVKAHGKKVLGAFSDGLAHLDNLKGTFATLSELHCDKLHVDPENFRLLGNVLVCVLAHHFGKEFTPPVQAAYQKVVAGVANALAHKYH
T2 sequence (P33261 whole entry): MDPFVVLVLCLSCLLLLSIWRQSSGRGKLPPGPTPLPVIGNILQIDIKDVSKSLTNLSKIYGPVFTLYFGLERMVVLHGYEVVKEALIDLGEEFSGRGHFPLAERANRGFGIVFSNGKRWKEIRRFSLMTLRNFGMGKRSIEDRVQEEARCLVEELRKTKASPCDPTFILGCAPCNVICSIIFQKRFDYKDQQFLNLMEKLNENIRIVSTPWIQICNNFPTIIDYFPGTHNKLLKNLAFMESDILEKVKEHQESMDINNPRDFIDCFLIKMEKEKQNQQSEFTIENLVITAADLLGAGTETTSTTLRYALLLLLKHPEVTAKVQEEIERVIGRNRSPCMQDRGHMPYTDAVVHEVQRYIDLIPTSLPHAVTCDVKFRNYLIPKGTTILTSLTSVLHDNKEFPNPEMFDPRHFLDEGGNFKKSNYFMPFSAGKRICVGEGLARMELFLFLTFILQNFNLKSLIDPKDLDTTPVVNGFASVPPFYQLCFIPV
T4 sequence (P11712 whole entry): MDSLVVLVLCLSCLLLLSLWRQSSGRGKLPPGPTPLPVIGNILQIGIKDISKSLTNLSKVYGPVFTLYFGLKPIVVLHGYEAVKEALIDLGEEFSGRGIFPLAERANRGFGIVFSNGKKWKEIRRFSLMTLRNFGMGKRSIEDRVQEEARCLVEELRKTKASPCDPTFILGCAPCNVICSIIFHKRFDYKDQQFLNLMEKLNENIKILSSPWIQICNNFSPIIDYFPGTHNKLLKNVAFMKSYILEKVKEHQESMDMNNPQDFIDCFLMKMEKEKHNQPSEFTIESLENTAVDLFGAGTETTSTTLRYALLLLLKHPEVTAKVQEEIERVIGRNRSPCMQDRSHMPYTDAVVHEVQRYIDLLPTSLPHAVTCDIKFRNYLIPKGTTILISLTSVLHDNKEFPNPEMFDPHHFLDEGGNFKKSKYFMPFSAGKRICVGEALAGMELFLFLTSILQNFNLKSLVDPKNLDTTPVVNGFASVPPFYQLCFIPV
T6 sequence (P08684 whole entry): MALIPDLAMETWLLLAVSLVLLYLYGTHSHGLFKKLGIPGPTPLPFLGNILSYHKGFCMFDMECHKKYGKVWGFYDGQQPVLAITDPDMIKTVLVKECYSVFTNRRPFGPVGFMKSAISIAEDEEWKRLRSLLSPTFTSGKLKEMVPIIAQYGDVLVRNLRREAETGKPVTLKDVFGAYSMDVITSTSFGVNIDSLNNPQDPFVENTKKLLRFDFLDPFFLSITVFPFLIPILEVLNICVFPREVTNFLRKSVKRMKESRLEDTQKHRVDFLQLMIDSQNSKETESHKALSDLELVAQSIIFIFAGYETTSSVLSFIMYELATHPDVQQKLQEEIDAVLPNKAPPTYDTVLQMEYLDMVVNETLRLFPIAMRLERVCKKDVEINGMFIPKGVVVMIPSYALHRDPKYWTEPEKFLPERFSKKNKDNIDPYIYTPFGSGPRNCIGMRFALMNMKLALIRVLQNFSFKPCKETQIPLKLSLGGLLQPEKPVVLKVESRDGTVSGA
T5 sequence (P10635 whole entry): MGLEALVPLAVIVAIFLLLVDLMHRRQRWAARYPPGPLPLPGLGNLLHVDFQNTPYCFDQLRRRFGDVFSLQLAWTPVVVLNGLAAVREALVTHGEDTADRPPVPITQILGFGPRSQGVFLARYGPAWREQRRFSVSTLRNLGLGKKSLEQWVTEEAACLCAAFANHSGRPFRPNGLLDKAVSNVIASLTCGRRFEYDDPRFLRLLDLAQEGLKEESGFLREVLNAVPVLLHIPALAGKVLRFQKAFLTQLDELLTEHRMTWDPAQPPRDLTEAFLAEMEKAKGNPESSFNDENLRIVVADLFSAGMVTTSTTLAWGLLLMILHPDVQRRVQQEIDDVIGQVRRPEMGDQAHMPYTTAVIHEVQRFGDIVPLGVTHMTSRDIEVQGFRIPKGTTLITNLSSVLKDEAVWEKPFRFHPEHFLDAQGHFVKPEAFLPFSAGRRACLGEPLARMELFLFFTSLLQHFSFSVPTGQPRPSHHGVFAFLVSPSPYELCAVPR

`[2H]C([2H])(Oc1cccc(O)c1C=O)c1cncnc1-c1ccnn1C(C)C` [Example 38, 2-hydroxy-6-((4-(1-isopropyl-1H-pyrazol-5-yl)pyrimidin-5-yl)methoxy-d2)benzaldehyde]: the “delta p50 0.2 mM” value in experiment [1] (0.2 mM compound) was −15.20%. In experiment [1] (0.5 mM compound), the “delta p50 0.5 mM” value is −46.80%. The “Reduction in % sickled cells compared to untreated” value in experiment [2] is reported as −30.6%. For the same compound, the IC50 was 8.61 µM on CYP2C19; 25.2 µM at CYP2C8; 10.6 µM at CYP2C9; over 30 µM at CYP2D6; over 30 µM on CYP3A4-M.
